Our source for the pest or weed control values is patent US12077503B2, “Substituted cyclic amides and their use as herbicides” (FMC CORPORATION, priority 2015, dated 2024).

Read-outs that look alike come from different tables or passages of the source.

Holding throughout (assay): Test A preemergence
Common to all, as to assay type: in vivo

The subject of assay [1] is ryegrass, Italian (Italian ryegrass, Lolium multiflorum). The settings on record: Lolium multiflorum, pre-emergence, 240 h; for pest or weed control at 125 g/ha: 125 g ai/ha; for pest or weed control at 500 g/ha: 500 g ai/ha. Put shortly:
(§1)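 Compounds were formulated in a non-phytotoxic solvent mixture with surfactant and applied as a preemergence directed soil spray after seeding, or sprayed postemergence over plants 2 to 10 cm tall at the one- to two-leaf stage. Evaluation after about 10 d compared treated with untreated controls, using a scale from 0 (no effect) to 100 (complete control).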

Assay [2] relates to giant foxtail (Setaria faberii). The settings on record: Setaria faberi, pre-emergence, 240 h; for pest or weed control at 125 g/ha: 125 g ai/ha; for pest or weed control at 500 g/ha: 500 g ai/ha. Put shortly:
as §1

In assay [3] the test system is barnyardgrass (Echinochloa crus-galli). The settings on record: Echinochloa crus-galli, pre-emergence, 240 h; for pest or weed control at 125 g/ha: 125 g ai/ha; for pest or weed control at 500 g/ha: 500 g ai/ha. Put shortly:
as §1

Assay [4] has as its system ragweed (common ragweed, Ambrosia elatior). The settings on record: Ambrosia artemisiifolia, pre-emergence, 240 h; for pest or weed control at 125 g/ha: 125 g ai/ha; for pest or weed control at 500 g/ha: 500 g ai/ha. Put shortly:
as §1

For another assay, the system named is Kochia (Kochia scoparia). The settings on record: Bassia scoparia, pre-emergence, 240 h; for pest or weed control at 125 g/ha: 125 g ai/ha; for pest or weed control at 500 g/ha: 500 g ai/ha. Summed up:
as §1

Setting [5] is: preemergence, 0 to 100 scale where 0 is no effect and 100 is complete control, read-out: Ryegrass, Italian plant response rating.
The mark [6] stands for this setting: Preemergence, visual injury vs untreated controls after approximately 10 d, read-out: Ryegrass, Italian plant response rating (0 to 100 scale where 0 is no effect and 100 is complete control).
Setting [7] is: preemergence, 0 to 100 scale where 0 is no effect and 100 is complete control, read-out: Foxtail, Giant plant response rating.
Setting [8] is: Preemergence, visual injury vs untreated controls after approximately 10 d, read-out: Foxtail, Giant plant response rating (0 to 100 scale where 0 is no effect and 100 is complete control).
Where [9] appears, read: preemergence, 0 to 100 scale where 0 is no effect and 100 is complete control, read-out: Barnyardgrass plant response rating.
Where [10] appears, read: Preemergence, visual injury vs untreated controls after approximately 10 d, read-out: Barnyardgrass plant response rating (0 to 100 scale where 0 is no effect and 100 is complete control).
Where [11] appears, read: preemergence, 0 to 100 scale where 0 is no effect and 100 is complete control, read-out: Ragweed plant response rating.
Where [12] appears, read: Preemergence, visual injury vs untreated controls after approximately 10 d, read-out: Ragweed plant response rating (0 to 100 scale where 0 is no effect and 100 is complete control).
Setting [13] is: preemergence, 0 to 100 scale where 0 is no effect and 100 is complete control, read-out: Kochia plant response rating.
The mark [14] stands for this setting: Preemergence, visual injury vs untreated controls after approximately 10 d, read-out: Kochia plant response rating (0 to 100 scale where 0 is no effect and 100 is complete control).
The mark [15] stands for this setting: preemergence, 0 to 100 scale where 0 is no effect and 100 is complete control, approx. 10 d, read-out: Ryegrass, Italian plant response rating.
[16] abbreviates: preemergence, 0 to 100 scale where 0 is no effect and 100 is complete control, approx. 10 d, read-out: Foxtail, Giant plant response rating.
[17] abbreviates: preemergence, 0 to 100 scale where 0 is no effect and 100 is complete control, approx. 10 d, read-out: Barnyardgrass plant response rating.
Setting [18] is: preemergence, 0 to 100 scale where 0 is no effect and 100 is complete control, approx. 10 d, read-out: Ragweed plant response rating.
[19] abbreviates: preemergence, 0 to 100 scale where 0 is no effect and 100 is complete control, approx. 10 d, read-out: Kochia plant response rating.

As for `O=C(Nc1cccc(F)c1F)[C@H]1C(=O)N(C2CC2)CC[C@@H]1c1cccc(C(F)(F)F)c1` [Compound 925], the pest or weed control at 125 g/ha turned out to be 30% in assay [1] (setting [5]); 80% in assay [2] (setting [7]); 30% in assay [3] (setting [9]); 0% in assay [4] (setting [11]); 0% with Kochia (Kochia scoparia) (setting [13]). Besides, the pest or weed control at 500 g/ha in assay [1] (setting [6]) is 30%; in assay [2] (setting [8]), 90%; in assay [3] (setting [10]), 90%; in assay [4] (setting [12]) it was 0%; with Kochia (Kochia scoparia) (setting [14]) it was 0%.
For the compound `CSc1ccccc1NC(=O)[C@H]1C(=O)N(C)CC[C@@H]1c1ccc(C)cc1` [Compound 1222], the pest or weed control at 125 g/ha is 0% in assay [1] (preemergence, visual injury rating, 0 to 100 scale where 0 is no effect and 100 is complete control, approximately 10 d, read-out: Ryegrass, Italian plant response rating); 0% in assay [2] (preemergence, visual injury rating, 0 to 100 scale where 0 is no effect and 100 is complete control, approximately 10 d, read-out: Foxtail, Giant plant response rating); 0% in assay [3] (preemergence, visual injury rating, 0 to 100 scale where 0 is no effect and 100 is complete control, approximately 10 d, read-out: Barnyardgrass plant response rating); 0% in assay [4] (preemergence, visual injury rating, 0 to 100 scale where 0 is no effect and 100 is complete control, approximately 10 d, read-out: Ragweed plant response rating); 0% with Kochia (Kochia scoparia) (preemergence, visual injury rating, 0 to 100 scale where 0 is no effect and 100 is complete control, approximately 10 d, read-out: Kochia plant response rating). In addition, the pest or weed control at 500 g/ha was 0% in assay [1] (setting [5]); 60% in assay [2] (setting [7]); 20% in assay [3] (setting [9]); 0% in assay [4] (setting [11]); 40% with Kochia (Kochia scoparia) (setting [13]).
As to `CCOc1ccc([C@H]2CNC(=O)[C@@H]2C(=O)Nc2ccccc2F)cc1` [Compound 906], the pest or weed control at 125 g/ha (in assay [1] (setting [5]); in assay [2] (setting [7]); in assay [3] (setting [9]); in assay [4] (setting [11]); in the assay on Kochia (Kochia scoparia) (setting [13])) was 0% each time. The pest or weed control at 500 g/ha (in assay [1] (setting [6]); in assay [2] (setting [8]); in assay [3] (setting [10]); in assay [4] (setting [12]); in the assay on Kochia (Kochia scoparia) (setting [14])) was 0% throughout.
Take `Cc1ccc([C@H]2CNC(=O)[C@]2(Br)C(=O)Nc2cccc(F)c2F)cc1F` (racemic) [Compound 1073]: the pest or weed control at 125 g/ha in assay [1] (setting [15]) came out at 0%; in assay [2] (setting [16]), 100%; in assay [3] (setting [17]), 100%; in assay [4] (setting [18]) it was 10%; with Kochia (Kochia scoparia) (setting [19]) it was 0%. The pest or weed control at 500 g/ha in assay [1] (preemergence, visual injury rating about 10 d after treatment, 0 to 100 scale (0 no effect, 100 complete control), read-out: Ryegrass, Italian plant response rating) is 20%; in assay [2] (preemergence, visual injury rating about 10 d after treatment, 0 to 100 scale (0 no effect, 100 complete control), read-out: Foxtail, Giant plant response rating), 100%; in assay [3] (preemergence, visual injury rating about 10 d after treatment, 0 to 100 scale (0 no effect, 100 complete control), read-out: Barnyardgrass plant response rating) it was 100%; in assay [4] (preemergence, visual injury rating about 10 d after treatment, 0 to 100 scale (0 no effect, 100 complete control), read-out: Ragweed plant response rating), 30%; with Kochia (Kochia scoparia) (preemergence, visual injury rating about 10 d after treatment, 0 to 100 scale (0 no effect, 100 complete control), read-out: Kochia plant response rating), 70%.
In the case of `COc1cc([C@H]2CN(C)C(=O)[C@@H]2C(=O)Nc2ccccc2SC)cc(C(F)(F)F)c1` [Compound 857], the pest or weed control at 125 g/ha in assay [1] (setting [5]) was determined as 40%; in assay [2] (setting [7]) it was 80%; in assay [3] (setting [9]), 90%; in assay [4] (setting [11]), 0%; in the assay on Kochia (Kochia scoparia) (setting [13]), 0%. In addition, the pest or weed control at 500 g/ha is 60% in assay [1] (setting [6]); 90% in assay [2] (setting [8]); 90% in assay [3] (setting [10]); 30% in assay [4] (setting [12]); 30% in the assay on Kochia (Kochia scoparia) (setting [14]).
Regarding `CCc1cc([C@H]2CNC(=O)[C@@H]2C(=O)Nc2cccc(F)c2F)cs1` [Compound 1155], the pest or weed control at 125 g/ha worked out at 0% in assay [1] (setting [15]); 70% in assay [2] (setting [16]); 90% in assay [3] (setting [17]); 40% in assay [4] (setting [18]); 60% in the assay with Kochia (Kochia scoparia) (setting [19]). Moreover, the pest or weed control at 500 g/ha in assay [1] (setting [5]) was found to be 30%; in assay [2] (setting [7]), 90%; in assay [3] (setting [9]), 100%; in assay [4] (setting [11]), 80%; in the assay on Kochia (Kochia scoparia) (setting [13]) it was 90%.
In the case of `COc1c(F)ccc([C@H]2CNC(=O)[C@@H]2C(=O)Nc2ccccc2F)c1Cl` [Compound 881], the pest or weed control at 125 g/ha came to 30% in assay [1] (setting [5]); 80% in assay [2] (setting [7]); 80% in assay [3] (setting [9]); 0% in assay [4] (setting [11]); 30% in the assay on Kochia (Kochia scoparia) (setting [13]). Moreover, the pest or weed control at 500 g/ha in assay [1] (setting [6]) turned out to be 60%; in assay [2] (setting [8]) it was 90%; in assay [3] (setting [10]), 90%; in assay [4] (setting [12]), 0%; with Kochia (Kochia scoparia) (setting [14]), 60%.
Consider `CN1C[C@H](c2cc(F)c(C(F)(F)F)c(F)c2)[C@@H](C(=O)Nc2cccc(F)c2F)C1=O` [Compound 898], for which the pest or weed control at 125 g/ha was 40% in assay [1] (setting [5]); 90% in assay [2] (setting [7]); 90% in assay [3] (setting [9]); 60% in assay [4] (setting [11]); 70% in the assay with Kochia (Kochia scoparia) (setting [13]). Also, the pest or weed control at 500 g/ha in assay [1] (setting [6]) was 70%; in assay [2] (setting [8]), 90%; in assay [3] (setting [10]), 90%; in assay [4] (setting [12]) it was 60%; with Kochia (Kochia scoparia) (setting [14]), 90%.
